Counter-ions that a name gives are not always drawn. Like-named read-outs stand apart in the source and are kept apart here. Starred links: 1 amine or outer side, 2 acyl side, 3 side chain; linkers in the order of their positions; H or OH if unused. Positions of bridges follow the written chain, without caps; N, C: chain ends. Non-standard residues stand in square brackets, D forms with d. Residues, ends and D or L forms follow the SMILES beside them. Trp(5-OH) = N[C@@H](Cc1c[nH]c2ccc(O)cc12)C(=O)O; NMePhe(4-F) = CN[C@@H](Cc1ccc(F)cc1)C(=O)O; NMehPhe = CN[C@@H](CCc1ccccc1)C(=O)O; Gly(cPr) = N[C@H](C(=O)O)C1CC1; NMeC = CN[C@@H](CS)C(=O)O; NMeS = CN[C@@H](CO)C(=O)O; Dap = NC[C@H](N)C(=O)O; X5 = O=C(C[*:2])[*:1]
Columns and labels:
Type in all cases: binding
human HER2 (23-652) = human HER2 (23-652) (Homo sapiens, UniProt P04626); assay: Surface plasmon resonance (SPR) for assessment of peptide affinity, human HER2; parameters: towards human HER2 (23-652) and mouse HER2 (23-653); made in house
Summary of the method: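 Binding kinetics fitted from sensorgrams with 280 s peptide association then 3000 s dissociation (30 uL/min), using HER2 (23-652) either directly immobilized (SA/CM5) or anti-Fc-captured; 3 M magnesium chloride used for regeneration.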

mouse HER2 (23-653) [1] = biological target: T1, mouse HER2 (23-653) (Mus musculus, UniProt P70424); assay: TR-FRET competition assay for peptide potency, mouse HER2; parameters: mouse HER2 (23-653) using a Cy5 labeled peptide as a probe; made in house; host or cells: mammalian cells; conditions: 0.1 nM mouse HER2, 24 h incubation
mouse HER2 (23-653) [2] = biological target: T1, mouse HER2 (23-653); assay: Surface plasmon resonance (SPR) for assessment of peptide affinity, mouse HER2; parameters: mouse HER2 (23-653) using a Cy5 labeled peptide as a probe; made in house
Text: Each protein was immobilized either onto a SA sensorchip (Cytiva, BR-1005-31) or CM5 sensorchip (Cytiva, BR-1005-30) to a density of 800-2000 RU.

[3] = SPR, human HER2 extracellular domain, 25° C., 1:1 binding model, read-out: huHER2-SPR-ONC KD
[4] = TR-FRET competition with Cy5 labeled peptide probe, read-out: moHER2 TR-FRET IC50
[5] = SPR, mouse HER2 extracellular domain, 25° C., 1:1 binding model, read-out: moHER2-SPR-ONC KD

Row | Kd (human HER2 (23-652); [3]) [nM] | IC50 (mouse HER2 (23-653) [1]; [4]) [nM] | Kd (mouse HER2 (23-653) [2]; [5]) [nM] | SMILES | Kd (human HER2 (23-652)) [nM] | IC50 (mouse HER2 (23-653) [1]; moHER2 TR-FRET IC50, TR-FRET competition with Cy5 labeled peptide probe) [nM] | Kd (mouse HER2 (23-653) [2]) [nM]
1 | 31 | 67 | 30 | CC(=O)N[C@H]1CCC(=O)NC[C@@H](C(=O)N(C)[C@@H](Cc2ccc(F)cc2)C(=O)N2CCC[C@H]2C(N)=O)N(C)C(=O)[C@H](C2CC2)NC(=O)[C@H](Cc2c[nH]c3ccccc23)NC(=O)[C@H](Cc2c[nH]c3ccc(O)cc23)NC(=O)[C@H](CO)N(C)C(=O)[C@H](CCc2ccccc2)N(C)C(=O)[C@H](CO)NC(=O)[C@H](Cc2ccc(O)cc2)NC1=O [Example A30, (3S,6S,9S,12S,15S,18S,21S,24S,27S)-9-((1H-indol-3-yl)methyl)-27-acetamido-N-((S)-1-((S)-2-carbamoylpyrrolidin-1-yl)-3-(4-fluorophenyl)-1-oxopropan-2-yl)-6-cyclopropyl-12-((5-hydroxy-1H-indol-3-yl)methyl)-24-(4-hydroxybenzyl)-15,21-bis(hydroxymethyl)-N,4,16,19-tetramethyl-5,8,11,14,17,20,23,26,30-nonaoxo-18-phenethyl-1,4,7,10,13,16,19,22,25-nonaazacyclotriacontane-3-carboxamide] |  |  | 
2 |  |  |  | CN1C(=O)[C@H](CO)NC(=O)[C@H](Cc2ccc(O)cc2)NC(=O)[C@@H](N)CCC(=O)NC[C@@H](C(=O)N(C)[C@@H](Cc2ccc(F)cc2)C(N)=O)N(C)C(=O)[C@H](C2CC2)NC(=O)[C@H](Cc2c[nH]c3ccccc23)NC(=O)[C@H](Cc2c[nH]c3ccc(O)cc23)NC(=O)[C@H](CCCCNC(=O)C(F)(F)F)N(C)C(=O)[C@@H]1CCc1ccccc1 [Example A33, (3S,6S,9S,12S,15S,18S,21S,24S,27S)-9-((1H-indol-3-yl)methyl)-27-amino-N-((S)-1-amino-3-(4-fluorophenyl)-1-oxopropan-2-yl)-6-cyclopropyl-12-((5-hydroxy-1H-indol-3-yl)methyl)-24-(4-hydroxybenzyl)-21-(hydroxymethyl)-N,4,16,19-tetramethyl-5,8,11,14,17,20,23,26,30-nonaoxo-18-phenethyl-15-(4-(2,2,2-trifluoroacetamido)butyl)-1,4,7,10,13,16,19,22,25-nonaazacyclotriacontane-3-carboxamide TFA salt] | 15 | 32 | 23
3 | 117 | 430 | 122 | CC(=O)N[C@H]1CNC(=O)CSC[C@@H](C(=O)N(C)[C@@H](Cc2ccc(F)cc2)C(N)=O)N(C)C(=O)[C@H](C2CC2)NC(=O)[C@H](Cc2c[nH]c3ccccc23)NC(=O)[C@H](Cc2c[nH]c3ccc(O)cc23)NC(=O)[C@H](CO)N(C)C(=O)[C@H](CCc2ccccc2)N(C)C(=O)[C@H](CO)NC(=O)[C@H](Cc2ccc(O)cc2)NC1=O [Example A50, (3R,6S,9S,12S,15S,18S,21S,24S,27S)-9-((1H-indol-3-yl)methyl)-27-acetamido-N—((S)-1-amino-3-(4-fluorophenyl)-1-oxopropan-2-yl)-6-cyclopropyl-12-((5-hydroxy-1H-indol-3-yl)methyl)-24-(4-hydroxybenzyl)-15,21-bis(hydroxymethyl)-N,4,16,19-tetramethyl-5,8,11,14,17,20,23,26,30-nonaoxo-18-phenethyl-1-thia-4,7,10,13,16,19,22,25,29-nonaazacyclohentriacontane-3-carboxamide] (Ac-[Dap]YS[NMehPhe][NMeS][Trp(5-OH)]W[Gly(cPr)][NMeC][NMePhe(4-F)]-NH2; linker 1-9 via X5) |  |  | 
